{"source": "patent US11510899B2", "about": "“RTX toxin production inhibitor and composition for treating symptom of vibrio infection by using same” (priority 2018, dated 2022)", "test_system": "Vibrio vulnificus", "experiment": "Cytotoxicity of Vibrio vulnificus to INT-407 cells (LDH activity)", "format": "cell-based", "conditions": "MOI 10, 2.5 hours, various concentrations", "description": "Vibrio vulnificus cultured to A600=0.5 at 30° C. was treated with various concentrations of CM2660 or DMSO (control group) and infected into INT-407 cells prepared in 96-well assay plates at multiplicity of infection (MOI) of 10 for 2.5 hours. Then, the 96-well assay plates were centrifuged to separate INT-407 cells, and the supernatant and the lactate dehydrogenase (LDH) activity in the supernatant was measured to determine the occurrence of virulence (FIG. 13).", "data": [{"smiles": "O=C(C#Cc1ccccc1)Nc1scc2c1c(=O)oc1ccccc12", "note": "[CM2660, N-(4-oxo-4H-thieno[3,4-c]chromen-3-yl)-3-phenylprop-2-ynamide]", "values": [{"measurement": "virulence (cytotoxicity) occurrence of Vibrio vulnificus", "result": "concentration-dependent decrease"}]}]}
